Source: the supplement of paper PMC12819154, “High-throughput peptide-centric local stability assay extends protein–ligand identification to membrane proteins, tissues and bacteria” (Nature Structural & Molecular Biology, 2025)

Key:
Assay in all cases: pEC50 of peptide local stability change
UniProt P21345 = settings: peptide sequence: EVLGKFDK; direction: stabilized; replicate design: treated separately
Description: (§1)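 Dose-response HT-PELSA: desalted E. coli lysate treated separately per replicate with ATP (10 uM to 10 mM, 7 doses) for 30 min at 25 C, then a 4 min trypsin pulse at 22 C. Peptide ratio vs control was fitted with a 4-parameter log-logistic model (R2 > 0.9 in at least 3 replicates, CV of pEC50 <= 0.25); value is the mean pEC50 across replicates for stabilized or destabilized peptides.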

UniProt P07395 = settings: peptide sequence: EISRFPANRR; direction: stabilized; replicate design: treated separately
Description: as §1

UniProt P13458 = settings: peptide sequence: LESTFAVK; direction: stabilized; replicate design: treated separately
Description: as §1

UniProt P39410 = settings: peptide sequence: HIAQEMPEK; direction: stabilized; replicate design: treated separately
Description: as §1

UniProt P39342 = settings: peptide sequence: AMVIAPCSR; direction: stabilized; replicate design: treated separately
Description: as §1

UniProt P00452 = settings: peptide sequence: VKAVELFSLMMQER; direction: stabilized; replicate design: treated separately
Description: as §1

UniProt P20083 = settings: peptide sequence: RDGQVYNIAFENGEK; direction: stabilized; replicate design: treated separately
Description: as §1

UniProt P75736 = settings: peptide sequence: QQAAAIMR; direction: stabilized; replicate design: treated separately
Description: as §1

UniProt P07118 = settings: peptide sequence: ITPAHDFNDYEVGKR; direction: stabilized; replicate design: treated separately
Description: as §1

UniProt Q06065 = settings: peptide sequence: QPVCNAGEVK; direction: stabilized; replicate design: treated separately
Description: as §1

UniProt P28903 = settings: peptide sequence: KGDPNYDIK; direction: stabilized; replicate design: treated separately
Description: as §1

UniProt P30844 = settings: peptide sequence: AGQSFSSGNYQHVK; direction: stabilized; replicate design: treated separately
Description: as §1

UniProt P25741 = settings: peptide sequence: GKDAFAEVK; direction: stabilized; replicate design: treated separately
Description: as §1

UniProt P76027 = settings: peptide sequence: EILNLPEHELNKLR; direction: stabilized; replicate design: treated separately
Description: as §1

UniProt P76014 = settings: peptide sequence: VVEKLPAIADKDIGFILK; direction: stabilized; replicate design: treated separately
Description: as §1

UniProt P75821 = settings: peptide sequence: SAKEPPLTHYGVSK; direction: stabilized; replicate design: treated separately
Description: as §1

UniProt P12282 = settings: peptide sequence: NQLNAGCFAAK; direction: stabilized; replicate design: treated separately
Description: as §1

UniProt P06999 = settings: peptide sequence: ELTQPDDVR; direction: stabilized; replicate design: treated separately
Description: as §1

UniProt P43329 = settings: peptide sequence: HTEILPLYAR; direction: stabilized; replicate design: treated separately
Description: as §1

UniProt P37344 = settings: peptide sequence: ETLLNYR; direction: stabilized; replicate design: treated separately
Description: as §1

UniProt P27833 = settings: peptide sequence: SALINFLK; direction: stabilized; replicate design: treated separately
Description: as §1

UniProt P75828 = settings: peptide sequence: YLDIINR; direction: stabilized; replicate design: treated separately
Description: as §1

UniProt P06710 = settings: peptide sequence: ALDVEQIR; direction: stabilized; replicate design: treated separately
Description: as §1

UniProt P0DMC5 = settings: peptide sequence: EVMNHITANYLPLVVR; direction: stabilized; replicate design: treated separately
Description: as §1

UniProt P31663 = settings: peptide sequence: NGYLTAEQR; direction: stabilized; replicate design: treated separately
Description: as §1

UniProt P33919 = settings: peptide sequence: VLVLAHVK; direction: stabilized; replicate design: treated separately
Description: as §1

UniProt P0A6H5 = settings: peptide sequence: LANAPFIK; direction: stabilized; replicate design: treated separately
Description: as §1

UniProt P32143 = settings: peptide sequence: AGIPDCDQTR; direction: stabilized; replicate design: treated separately
Description: as §1

UniProt P14375 = settings: peptide sequence: ELENAVER; direction: stabilized; replicate design: treated separately
Description: as §1

UniProt P0AA41 = settings: peptide sequence: EDKGPQPAVTHYR; direction: stabilized; replicate design: treated separately
Description: as §1

UniProt P15038 = settings: peptide sequence: AVVNGEHSLLVLAGAGSGK; direction: stabilized; replicate design: treated separately
Description: as §1

UniProt P33919, sequence (P33919 whole entry): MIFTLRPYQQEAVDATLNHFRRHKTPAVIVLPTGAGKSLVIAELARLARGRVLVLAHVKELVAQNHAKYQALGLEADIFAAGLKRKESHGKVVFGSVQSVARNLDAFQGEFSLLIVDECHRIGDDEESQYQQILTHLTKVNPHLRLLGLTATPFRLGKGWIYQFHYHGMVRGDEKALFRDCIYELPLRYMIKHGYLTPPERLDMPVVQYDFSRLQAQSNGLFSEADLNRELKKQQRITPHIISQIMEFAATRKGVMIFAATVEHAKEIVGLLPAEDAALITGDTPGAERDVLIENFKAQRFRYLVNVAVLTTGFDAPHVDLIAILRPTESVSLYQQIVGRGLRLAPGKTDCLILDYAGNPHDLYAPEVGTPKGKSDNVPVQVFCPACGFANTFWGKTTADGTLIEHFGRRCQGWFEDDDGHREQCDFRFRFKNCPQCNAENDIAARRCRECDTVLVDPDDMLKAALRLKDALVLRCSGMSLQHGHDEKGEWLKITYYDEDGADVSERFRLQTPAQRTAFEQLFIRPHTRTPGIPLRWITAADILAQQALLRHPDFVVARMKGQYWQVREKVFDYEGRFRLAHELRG
UniProt P0A6H5, sequence (P0A6H5 whole entry): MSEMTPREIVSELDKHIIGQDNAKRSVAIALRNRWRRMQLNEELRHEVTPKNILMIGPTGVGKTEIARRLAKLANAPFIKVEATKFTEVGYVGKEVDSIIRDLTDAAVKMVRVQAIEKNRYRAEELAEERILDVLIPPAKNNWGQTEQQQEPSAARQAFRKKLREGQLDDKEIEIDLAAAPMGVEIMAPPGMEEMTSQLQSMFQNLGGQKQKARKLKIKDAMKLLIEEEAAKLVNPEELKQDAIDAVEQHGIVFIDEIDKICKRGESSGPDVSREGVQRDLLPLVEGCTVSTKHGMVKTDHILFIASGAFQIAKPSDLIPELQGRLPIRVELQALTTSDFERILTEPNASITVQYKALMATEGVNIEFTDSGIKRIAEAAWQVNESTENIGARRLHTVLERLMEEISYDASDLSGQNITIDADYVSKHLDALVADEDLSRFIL
UniProt P75828, sequence (P75828 whole entry): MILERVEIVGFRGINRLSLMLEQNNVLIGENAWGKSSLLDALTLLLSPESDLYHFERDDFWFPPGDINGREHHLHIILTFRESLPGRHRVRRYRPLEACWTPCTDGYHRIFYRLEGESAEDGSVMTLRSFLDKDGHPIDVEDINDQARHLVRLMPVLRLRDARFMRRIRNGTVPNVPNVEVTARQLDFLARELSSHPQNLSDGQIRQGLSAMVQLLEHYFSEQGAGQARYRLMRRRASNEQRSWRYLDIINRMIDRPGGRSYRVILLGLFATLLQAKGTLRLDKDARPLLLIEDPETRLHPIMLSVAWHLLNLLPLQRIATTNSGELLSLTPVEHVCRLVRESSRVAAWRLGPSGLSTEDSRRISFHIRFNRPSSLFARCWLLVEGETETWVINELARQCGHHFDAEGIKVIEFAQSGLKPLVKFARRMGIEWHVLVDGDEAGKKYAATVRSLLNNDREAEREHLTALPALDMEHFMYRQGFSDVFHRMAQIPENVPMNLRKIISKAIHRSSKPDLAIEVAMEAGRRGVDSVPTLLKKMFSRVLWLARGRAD
UniProt P06999, sequence (P06999 whole entry): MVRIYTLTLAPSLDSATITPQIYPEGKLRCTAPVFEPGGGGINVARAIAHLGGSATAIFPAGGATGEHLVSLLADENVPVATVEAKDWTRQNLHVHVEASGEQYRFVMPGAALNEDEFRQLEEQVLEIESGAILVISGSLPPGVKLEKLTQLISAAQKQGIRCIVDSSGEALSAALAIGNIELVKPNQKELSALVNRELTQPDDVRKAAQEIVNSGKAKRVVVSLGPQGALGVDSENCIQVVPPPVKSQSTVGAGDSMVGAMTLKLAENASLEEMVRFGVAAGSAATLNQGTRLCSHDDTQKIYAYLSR
UniProt P39342, sequence (P39342 whole entry): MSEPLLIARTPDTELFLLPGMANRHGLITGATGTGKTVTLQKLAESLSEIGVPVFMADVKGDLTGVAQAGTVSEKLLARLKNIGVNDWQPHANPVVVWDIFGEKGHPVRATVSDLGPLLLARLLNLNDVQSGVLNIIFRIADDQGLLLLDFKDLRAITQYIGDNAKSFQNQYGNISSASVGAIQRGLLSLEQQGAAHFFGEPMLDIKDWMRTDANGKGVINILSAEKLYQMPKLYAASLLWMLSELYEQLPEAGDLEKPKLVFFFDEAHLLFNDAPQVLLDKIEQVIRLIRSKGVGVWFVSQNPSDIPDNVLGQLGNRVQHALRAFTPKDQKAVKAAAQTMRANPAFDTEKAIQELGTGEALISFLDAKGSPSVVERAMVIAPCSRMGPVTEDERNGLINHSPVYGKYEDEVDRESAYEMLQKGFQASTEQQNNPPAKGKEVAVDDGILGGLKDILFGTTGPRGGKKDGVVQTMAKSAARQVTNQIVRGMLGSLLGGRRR
UniProt P12282, sequence (P12282 whole entry): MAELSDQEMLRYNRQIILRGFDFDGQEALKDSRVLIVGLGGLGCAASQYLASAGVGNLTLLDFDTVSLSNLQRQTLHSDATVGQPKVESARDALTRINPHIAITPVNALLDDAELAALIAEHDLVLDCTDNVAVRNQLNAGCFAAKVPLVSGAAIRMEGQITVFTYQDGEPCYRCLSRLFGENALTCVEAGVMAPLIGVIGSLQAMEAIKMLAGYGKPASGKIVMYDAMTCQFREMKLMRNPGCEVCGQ
UniProt P28903, sequence (P28903 whole entry): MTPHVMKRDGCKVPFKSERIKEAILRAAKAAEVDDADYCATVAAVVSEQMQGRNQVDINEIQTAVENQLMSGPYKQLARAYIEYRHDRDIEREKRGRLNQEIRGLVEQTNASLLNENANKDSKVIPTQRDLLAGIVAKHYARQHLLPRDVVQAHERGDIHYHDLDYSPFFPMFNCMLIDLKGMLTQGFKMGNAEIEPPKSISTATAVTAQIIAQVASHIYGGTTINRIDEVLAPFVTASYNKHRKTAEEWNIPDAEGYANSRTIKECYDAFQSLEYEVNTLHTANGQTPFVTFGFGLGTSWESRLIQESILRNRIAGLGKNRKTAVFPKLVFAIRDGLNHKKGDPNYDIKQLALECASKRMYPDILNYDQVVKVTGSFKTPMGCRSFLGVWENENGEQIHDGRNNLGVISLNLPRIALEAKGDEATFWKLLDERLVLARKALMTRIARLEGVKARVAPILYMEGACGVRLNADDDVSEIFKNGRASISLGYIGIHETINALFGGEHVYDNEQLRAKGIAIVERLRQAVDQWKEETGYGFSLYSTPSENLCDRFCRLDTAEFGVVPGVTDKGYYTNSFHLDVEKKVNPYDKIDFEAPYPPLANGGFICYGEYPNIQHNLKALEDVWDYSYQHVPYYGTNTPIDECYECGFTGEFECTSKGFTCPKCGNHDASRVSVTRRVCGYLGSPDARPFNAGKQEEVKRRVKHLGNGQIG
UniProt Q06065, sequence (Q06065 whole entry): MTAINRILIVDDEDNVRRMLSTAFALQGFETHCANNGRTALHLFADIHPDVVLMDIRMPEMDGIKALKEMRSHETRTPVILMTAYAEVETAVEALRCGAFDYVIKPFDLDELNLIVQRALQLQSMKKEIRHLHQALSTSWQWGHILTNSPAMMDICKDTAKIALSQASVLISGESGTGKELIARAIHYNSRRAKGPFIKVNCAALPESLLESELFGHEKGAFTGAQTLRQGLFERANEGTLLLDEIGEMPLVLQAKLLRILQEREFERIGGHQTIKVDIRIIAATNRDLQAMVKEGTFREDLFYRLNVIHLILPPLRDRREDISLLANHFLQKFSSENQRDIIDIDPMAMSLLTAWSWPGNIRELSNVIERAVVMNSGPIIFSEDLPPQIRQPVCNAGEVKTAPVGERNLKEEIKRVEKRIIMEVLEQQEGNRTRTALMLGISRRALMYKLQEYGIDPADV
UniProt P07118, sequence (P07118 whole entry): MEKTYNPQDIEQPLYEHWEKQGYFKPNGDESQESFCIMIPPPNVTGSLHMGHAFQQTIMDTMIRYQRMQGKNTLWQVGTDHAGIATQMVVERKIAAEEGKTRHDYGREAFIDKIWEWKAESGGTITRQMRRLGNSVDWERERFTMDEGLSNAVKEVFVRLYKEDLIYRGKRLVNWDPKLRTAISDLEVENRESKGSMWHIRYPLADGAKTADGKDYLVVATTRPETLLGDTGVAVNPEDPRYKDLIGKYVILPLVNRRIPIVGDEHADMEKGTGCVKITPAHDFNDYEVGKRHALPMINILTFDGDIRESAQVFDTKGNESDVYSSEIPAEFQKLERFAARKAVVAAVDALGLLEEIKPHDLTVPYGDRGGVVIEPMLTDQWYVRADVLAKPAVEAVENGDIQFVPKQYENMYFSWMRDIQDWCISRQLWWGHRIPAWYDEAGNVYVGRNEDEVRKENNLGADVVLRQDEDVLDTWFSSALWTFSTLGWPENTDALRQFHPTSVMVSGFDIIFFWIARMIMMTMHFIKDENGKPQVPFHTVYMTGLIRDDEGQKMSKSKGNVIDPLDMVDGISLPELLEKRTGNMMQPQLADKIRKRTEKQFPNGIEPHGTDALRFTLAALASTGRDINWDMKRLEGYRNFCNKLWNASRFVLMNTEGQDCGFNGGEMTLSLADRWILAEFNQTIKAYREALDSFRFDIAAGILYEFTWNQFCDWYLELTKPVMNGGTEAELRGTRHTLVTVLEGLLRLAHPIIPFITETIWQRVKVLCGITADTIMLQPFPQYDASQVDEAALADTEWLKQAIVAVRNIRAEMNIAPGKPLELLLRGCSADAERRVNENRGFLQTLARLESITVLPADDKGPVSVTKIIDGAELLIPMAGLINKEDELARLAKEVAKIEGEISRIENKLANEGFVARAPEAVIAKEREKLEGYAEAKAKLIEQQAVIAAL
UniProt P76014, sequence (P76014 whole entry): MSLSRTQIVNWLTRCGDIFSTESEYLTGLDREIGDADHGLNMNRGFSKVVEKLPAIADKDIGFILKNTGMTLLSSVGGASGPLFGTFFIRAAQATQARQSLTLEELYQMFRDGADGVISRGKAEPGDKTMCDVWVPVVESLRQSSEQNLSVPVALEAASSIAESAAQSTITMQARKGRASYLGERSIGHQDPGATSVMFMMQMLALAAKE

Nc1ncnc2c1ncn2[C@@H]1O[C@H](COP(=O)(O)OP(=O)(O)OP(=O)(O)O)[C@@H](O)[C@H]1O [adenosine 5'-triphosphate]
Settings	pEC50 of peptide local stability change
UniProt P0A6H5	3.26
UniProt P0AA41	2.34
UniProt P0DMC5	2.58
UniProt P00452	3.75
UniProt P06710	3.78
UniProt P06999	3.2
UniProt P07118	3.75
UniProt P07395	3.77
UniProt P12282	3.44
UniProt P13458	2.9
UniProt P14375	3.65
UniProt P15038	3.67
UniProt P20083	3.38
UniProt P21345	2.25
UniProt P25741	3.2
UniProt P27833	2.89
UniProt P28903	2.76
UniProt P30844	2.71
UniProt P31663	4.25
UniProt P32143	3.39
UniProt P33919	4.16
UniProt P37344	3.2
UniProt P39342	4.23
UniProt P39410	3.92
UniProt P43329	3.11
UniProt P75736	2.02
UniProt P75821	2.62
UniProt P75828	2.65
UniProt P76014	3.61
UniProt P76027	2.71
UniProt Q06065	3.47
